Laboratory results: ChEMBL document CHEMBL4819138, “Promising anti-SARS-CoV-2 drugs by effective dual targeting against the viral and host proteases” (Bioorg Med Chem Lett, 2021)

What was measured:
[1] = molecular target: Replicase polyprotein 1ab (Severe acute respiratory syndrome coronavirus 2) (UniProt P0DTD1); test: Inhibition of SARS-CoV-2 main protease at 100 microg/ml relative to control; details: dose 100.0 µg/ml
[2] = molecular target: Replicase polyprotein 1ab (Severe acute respiratory syndrome coronavirus 2) (UniProt P0DTD1); test: Inhibition of SARS-CoV-2 papain-like protease at 100 microg/ml relative to control; details: dose 100.0 µg/ml
[3] = test system: SARS-CoV-2; test: Antiviral activity against SARS-CoV-2 NRC-03-nhCoV strain infected in Vero E6 cells; type: functional, organism-based; details: Severe acute respiratory syndrome coronavirus 2, NRC-03-nhCoV, Vero C1008
[4] = test system: Fibroblast; test: Cytotoxicity against human fibroblasts cells assessed as cell growth inhibition by MTT assay; type: cell-based

| SMILES | inhibition [1] [%] | inhibition [2] [%] | IC50 [3] [nM] | IC50 [4] [nM] |
| --- | --- | --- | --- | --- |
| COc1cc(C(NC2=NC(=O)C(CC(=O)Nc3ccc(C(=O)O)cc3)S2)c2c(O)[nH]c(=O)[nH]c2=O)ccc1O (configuration not stated) | 31 | 56.4 | 770 | 1670 |
| CCOC(=O)C(Cc1c[nH]c2ccccc12)NC(=O)CCC(=O)Nc1ccc(S(N)(=O)=O)cc1 (configuration not stated) | – | > 40 | – | – |
| O=C(CSc1nnc2c(n1)[nH]c1ccccc12)Nc1cccc(S(=O)(=O)N2CCOCC2)c1 | – | > 40 | – | – |
| N=C(N/N=C/c1ccccc1O)c1nonc1NCNc1nonc1C(=N)N/N=C/c1ccccc1O | – | – | 110 | 410 |
| COc1ccc(/C=C\C(=O)NC(=S)Nc2ccc(S(=O)(=O)NC(N)=O)cc2)cc1OC | – | > 40 | – | – |
| COc1cc(CC(C)NCc2cc(NC(=O)c3ccccn3)cc(C(=O)N(C)C)c2)ccc1O (configuration not stated) | – | > 40 | – | – |
| O=C(CSc1nnc(NC2CC2)s1)Nc1ccccc1C(=O)Nc1ccc2c(c1)OCO2 | 26.4 | > 40 | – | – |
